Columns and labels:
rat mGluR5 = biological target: T1, rat mGluR5 (Rattus norvegicus, UniProt P31424); assay: mGluR5 assay on HEK-expressing rat mGluR5 (fluorescent cell based Ca2+ mobilization); settings: for EC50: HEK-293 cells stably expressing rat mGluR5, no co-addition of glutamate, mean of at least three independent experiments in duplicate, read-out: Ca2+ Flux (mean EC50); for activation of rat mGluR5 receptors: HEK-rat mGluR5 cell line, without co-addition of glutamate or mGluR5 agonist
T1 construct: expressed in transfected cells
Method: Positive functional expression of HEK-293 cells stably expressing rat mGluR5 receptor was determined by measuring intracellular Ca^2+ changes using a Fluorometric Imaging Plate Reader (FLIPR, Molecular Devices, Sunnyvale, Calif.) in response to glutamate or selective known mGluR5 agonists and antagonists. Rat mGluR5RT-PCR products in HEK-293 cells were sequenced and found 100% identical to rat mGluR5Genbank reference sequence (NM_017012). HEK-293 cells expressing rmGluR5 were maintained in media containing DMEM, dialyzed Fetal Bovine Serum (10%), Glutamax™ (2 mM), Penicillin (100 units/ml), Streptomycin (100 μg/ml), Geneticin (100 μg/ml) and Hygromycin-B (40 μg/ml) at 37° C./5% CO2.
After one day of incubation, cells were washed with assay buffer containing: 142 mM NaCl, 6 mM KCl, 1 mM […], 1 mM CaCl2, 20 mM HEPES, 1 g/L glucose, 0.125 mM sulfinpyrazone, pH 7.4. After 60 min of loading with 4 uM Fluo-4 (TefLabs, Austin, Tex.), the cells were washed three times with 50 μl of PBS Buffer and resuspended in 45 μl of assay Buffer. The plates were then transferred to a Fluorometric Imaging Plate Reader (FLIPR, Molecular Devices, Sunnyvale, Calif.) for the assessment of intracellular calcium flux. After monitoring the baseline fluorescence for 10 seconds, increasing concentrations of representative compound (from 0.01 to 60 μM) of the present invention diluted in Assay Buffer (15 μl of 4× dilutions) was added to the cell. The final DMSO concentration in the assay was 0.3%. In each experiment, fluorescence was then monitored as a function of time for 3 minutes and the data analyzed using Microsoft Excel and GraphPad Prism. Each data point was also measured two times.
Under these experimental conditions, this HEK-rat mGluR5 cell line is able to directly detect positive allosteric modulators without the need of co-addition of glutamate or mGluR5 agonist.
The concentration-response curves of representative compounds of the present invention were generated using the Prism GraphPad software (Graph Pad Inc, San Diego, USA). The curves were fitted to a four-parameter logistic equation:
(Y=Bottom+(Top-Bottom)/(1+10̂((Log EC50−X)*Hill Slope)
allowing determination of EC50 values.
The Table 1 below represents the mean EC50 obtained from at least three independent experiments of selected molecules performed in duplicate.

mGluR5 = biological target: T2, mGluR5 (Rattus norvegicus, UniProt P31424); settings: Liu et al (2006), Zhang et al (2005); cited from earlier work
T2 construct: positive allosteric modulators of mGluR5 receptors in native preparations; endogenous in cells; host or cells: primary cortical astrocytes from Sprague-Dawley rat embryos (E16-19)
T2 sequence (P31424 21-1203): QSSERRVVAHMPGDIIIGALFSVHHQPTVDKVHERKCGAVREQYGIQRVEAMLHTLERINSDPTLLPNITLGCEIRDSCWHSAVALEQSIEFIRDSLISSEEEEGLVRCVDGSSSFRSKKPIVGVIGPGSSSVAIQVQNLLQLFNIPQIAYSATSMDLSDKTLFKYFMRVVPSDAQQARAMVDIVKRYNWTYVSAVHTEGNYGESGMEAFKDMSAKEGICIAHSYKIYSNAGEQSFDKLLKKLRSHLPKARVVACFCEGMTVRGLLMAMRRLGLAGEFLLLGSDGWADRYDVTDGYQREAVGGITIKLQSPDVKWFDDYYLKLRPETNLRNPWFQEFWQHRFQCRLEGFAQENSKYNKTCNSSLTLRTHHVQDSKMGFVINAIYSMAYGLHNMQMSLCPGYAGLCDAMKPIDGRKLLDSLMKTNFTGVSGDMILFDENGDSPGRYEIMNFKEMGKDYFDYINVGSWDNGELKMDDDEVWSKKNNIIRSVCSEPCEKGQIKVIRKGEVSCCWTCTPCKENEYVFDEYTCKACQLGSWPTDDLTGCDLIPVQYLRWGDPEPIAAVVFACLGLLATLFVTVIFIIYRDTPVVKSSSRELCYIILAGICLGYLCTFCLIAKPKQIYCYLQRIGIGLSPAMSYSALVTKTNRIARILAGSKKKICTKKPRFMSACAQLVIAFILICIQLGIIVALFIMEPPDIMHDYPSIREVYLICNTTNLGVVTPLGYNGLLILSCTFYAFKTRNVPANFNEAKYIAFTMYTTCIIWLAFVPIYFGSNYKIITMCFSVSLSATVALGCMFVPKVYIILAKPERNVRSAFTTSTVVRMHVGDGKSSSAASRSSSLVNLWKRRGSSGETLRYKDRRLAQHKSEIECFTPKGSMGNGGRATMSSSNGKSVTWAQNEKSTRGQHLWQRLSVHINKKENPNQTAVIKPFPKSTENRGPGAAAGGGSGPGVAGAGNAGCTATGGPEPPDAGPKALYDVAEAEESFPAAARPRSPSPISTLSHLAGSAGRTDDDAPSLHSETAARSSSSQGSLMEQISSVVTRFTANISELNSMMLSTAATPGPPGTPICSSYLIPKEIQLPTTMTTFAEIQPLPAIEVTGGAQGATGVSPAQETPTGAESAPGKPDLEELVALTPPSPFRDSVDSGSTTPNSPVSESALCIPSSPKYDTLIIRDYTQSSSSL

T1 sequence (P31424 21-1171 isoform P31424-2 limits assumed): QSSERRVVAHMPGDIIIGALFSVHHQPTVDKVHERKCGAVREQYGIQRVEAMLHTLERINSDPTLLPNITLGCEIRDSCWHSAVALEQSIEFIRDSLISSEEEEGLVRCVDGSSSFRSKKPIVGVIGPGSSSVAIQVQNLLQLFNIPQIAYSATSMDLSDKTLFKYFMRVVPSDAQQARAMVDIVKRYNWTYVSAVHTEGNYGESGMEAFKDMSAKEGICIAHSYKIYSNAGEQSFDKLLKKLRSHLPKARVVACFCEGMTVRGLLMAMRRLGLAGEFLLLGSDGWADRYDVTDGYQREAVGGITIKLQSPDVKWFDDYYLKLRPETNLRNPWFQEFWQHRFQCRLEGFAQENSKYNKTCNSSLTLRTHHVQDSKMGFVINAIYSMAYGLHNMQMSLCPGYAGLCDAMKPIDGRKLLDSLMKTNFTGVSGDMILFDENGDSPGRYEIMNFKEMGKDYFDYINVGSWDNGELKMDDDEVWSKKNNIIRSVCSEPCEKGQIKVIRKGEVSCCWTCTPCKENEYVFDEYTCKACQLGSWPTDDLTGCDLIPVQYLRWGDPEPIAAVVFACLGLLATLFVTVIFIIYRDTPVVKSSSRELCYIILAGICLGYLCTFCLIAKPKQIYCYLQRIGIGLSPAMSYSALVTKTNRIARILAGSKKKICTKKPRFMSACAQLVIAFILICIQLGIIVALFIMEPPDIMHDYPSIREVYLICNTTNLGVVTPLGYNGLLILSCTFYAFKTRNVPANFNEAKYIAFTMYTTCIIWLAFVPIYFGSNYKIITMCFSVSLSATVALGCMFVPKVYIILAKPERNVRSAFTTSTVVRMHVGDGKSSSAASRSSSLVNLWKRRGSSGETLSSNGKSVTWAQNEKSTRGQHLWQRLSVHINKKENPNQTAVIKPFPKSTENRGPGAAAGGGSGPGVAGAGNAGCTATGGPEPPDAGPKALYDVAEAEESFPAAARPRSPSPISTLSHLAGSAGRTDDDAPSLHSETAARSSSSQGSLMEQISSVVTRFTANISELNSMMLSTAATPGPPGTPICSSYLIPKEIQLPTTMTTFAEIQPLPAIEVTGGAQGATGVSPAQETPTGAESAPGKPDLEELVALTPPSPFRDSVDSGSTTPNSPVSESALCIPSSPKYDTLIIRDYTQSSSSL

SMILES	EC50 (rat mGluR5) [nM]	other results
O=C(Nc1ccc(Cl)cc1CN1C(=O)c2ccccc2C1=O)c1ccccc1O [CPPHA, reference compound]		activity in rat cortical astrocytes culture in the absence of added glutamate (mGluR5): inactive; activation of rat mGluR5 receptors (rat mGluR5): activating
N#Cc1cccc(C(=O)Nc2cc(-c3ccccc3)nn2-c2ccccc2)c1 [CDPPB, reference compound]		activity in rat cortical astrocytes culture in the absence of added glutamate (mGluR5): inactive; activation of rat mGluR5 receptors (rat mGluR5): activating
O=C(c1ccc(F)cc1)N1CCC[C@H](c2nc(-c3ccc(F)cc3F)co2)C1 [Example 14, (S)-(3-(4-(2,4-Difluoro-phenyl)-oxazol-2-yl)-piperidin-1-yl)(4-fluoro-phenyl)-methanone]	< 1000	
Fc1cccc(/C=N/N=C/c2cccc(F)c2)c1 [DFB, reference compound]		activity in rat cortical astrocytes culture in the absence of added glutamate (mGluR5): inactive; activation of rat mGluR5 receptors (rat mGluR5): activating
O=C(c1ccc(F)cc1)N1CCC[C@H](c2nc(-c3ccc(F)cn3)co2)C1 [Example 10, (S)-(4-Fluoro-phenyl)(3-(4-(5-fluoro-pyridin-2-yl)-oxazol-2-yl)-piperidin-1-yl)-methanone]	< 1000	
O=C(c1ccc(F)nc1)N1CCC[C@H](c2nc(-c3ccc(F)cc3F)co2)C1 [Example 15, (S)-(3-(4-(2,4-Difluoro-phenyl)-oxazol-2-yl)-piperidin-1-yl)(6-fluoro-pyridin-3-yl)-methanone]	1000 to 10000	
O=C(c1ccc(F)cc1)N1CCC[C@H](c2nc(-c3ccccc3F)co2)C1 [Example 11, (S)-(4-Fluoro-phenyl)(3-(4-(2-fluoro-phenyl)-oxazol-2-yl)-piperidin-1-yl)-methanone]	< 1000	
O=C(c1ccc(F)nc1)N1CCC[C@H](c2nc(-c3ccccc3F)co2)C1 [Example 12, (S)-(3-(4-(2-Fluoro-phenyl)-oxazol-2-yl)-piperidin-1-yl)(6-fluoro-pyridin-3-yl)-methanone]	< 1000	

Continued, in another order:

EC50 (rat mGluR5) [nM]	SMILES	other results
< 1000	O=C(c1ccc(F)c(F)c1)N1CCC[C@H](c2nc(-c3ccccn3)co2)C1 [Example 9, (S)-(3,4-Difluoro-phenyl)(3-(4-(pyridin-2-yl)-oxazol-2-yl)-piperidin-1-yl)-methanone]	
< 1000	O=C(c1ccc(F)cc1)N1CCC[C@H](c2nc(-c3ccccn3)co2)C1 [Example 8, (S)-(4-Fluoro-phenyl)(3-(4-(pyridin-2-yl)-oxazol-2-yl)-piperidin-1-yl)-methanone]	
< 1000	O=C(c1ccncc1F)N1CCC[C@H](c2nc(-c3ccc(F)cc3)co2)C1 [Example 6, (3-Fluoro-pyridin-4-yl)-{(S)-3-[4-(4-fluoro-phenyl)-oxazol-2-yl]-piperidin-1-yl}-methanone]	
< 1000	O=C(c1ccnc(F)c1)N1CCC[C@H](c2nc(-c3ccc(F)cc3F)co2)C1 [Example 16, (S)-(3-(4-(2,4-Difluoro-phenyl)-oxazol-2-yl)-piperidin-1-yl)(2-fluoro-pyridin-4-yl)-methanone]	
< 1000	O=C(c1ccnc(F)c1)N1CCC[C@H](c2nc(-c3ccccc3F)co2)C1 [Example 13, (S)-(3-(4-(2-Fluoro-phenyl)-oxazol-2-yl)-piperidin-1-yl)(2-fluoro-pyridin-4-yl)-methanone]	
< 1000	O=C(c1ccc(F)cc1)N1CCC[C@H](c2nc(-c3ccc(F)cc3)co2)C1 [Example 3, (4-Fluoro-phenyl)-{(S)-3-[4-(4-fluorophenyl)-oxazol-2-yl]-piperidin-1-yl}-methanone]	
< 1000	O=C(c1ccc(F)nc1)N1CCC[C@H](c2nc(-c3ccc(F)cc3)co2)C1 [Example 4, (6-Fluoro-pyridin-3-yl)-{(S)-3-[4-(4-fluoro-phenyl)-oxazol-2-yl]-piperidin-1-yl}-methanone]	
< 1000	O=C(c1ccc(F)nc1)N1CCC[C@H](c2nc(-c3cc(F)c[nH]3)co2)C1 [Example 2, (6-Fluoro-pyridin-3-yl)-{(S)-3-[4-(4-fluoro-1H-pyrrol-2-yl)-oxazol-2-yl]-piperidin-1-yl}-methanone]	melting point: 123 °C
< 1000	Cc1oncc1C(=O)N1CCC[C@H](c2nc(-c3ccc(F)cc3)co2)C1 [Example 7, (S)-(3-(4-(4-Fluoro-phenyl)-oxazol-2-yl)-piperidin-1-yl)(5-methyl-isoxazol-4-yl)-methanone]	
< 1000	O=C(c1ccnc(F)c1)N1CCC[C@H](c2nc(-c3ccc(F)cc3)co2)C1 [Example 5, (2-Fluoro-pyridin-4-yl)-{(S)-3-[4-(4-fluoro-phenyl)-oxazol-2-yl]-piperidin-1-yl}-methanone]	

From patent US20100081690A1, “OXAZOLE DERIVATIVES AS POSITIVE ALLOSTERIC MODULATORS OF METABOTROPIC GLUTAMATE RECEPTORS” (ADDEX PHARMA SA, priority 2006, published 2010)
